{"source": "patent US11464756B1", "about": "“Mecuna pruriens, L-DOPA and 5-HTP based dietary supplements, pharmaceutical formulations and uses thereof” (priority 2017, dated 2022)", "key": {"[1]": {"test_system": "serotonin levels", "test": "Short term rise of serotonin levels after taking 5-HTP", "type": "in vivo", "details": "short term result of taking 5-HTP", "description": "Recently 5-HTP has been introduced to the US market. […] Taking 5-HTP in any of several forms can raise serotonin levels in a natural way by “Filling the Well”. There appears to be both a short term and long term results from taking 5-HTP. Short term there seems to be a ‘burst’ lasting 4-5 hours when levels rise, and long term as the “reservoir” or “water table” rises, to extend the metaphor, we notice that it takes much less 5-HTP to achieve the same result."}, "[2]": {"details": "cited from earlier work"}}, "data": [{"smiles": "N[C@@H](Cc1c[nH]c2ccc(O)cc12)C(=O)O", "note": "[Example 5-HTP, 5-Hydroxy-tryptophan]", "values": [{"measurement": "duration of short term 'burst' when levels rise", "setting": "[1]", "result": "4 to 5", "unit": "h"}, {"measurement": "time in which it is decarboxylated in the bloodstream", "setting": "[2]", "result": "≤ 45", "unit": "min"}]}]}
